Experimental data published in US12240815B2, “Potent and selective human neuronal nitric oxide synthase inhibitors” (Northwestern University, priority 2020, dated 2025).
Counter-ions that a name gives are not always drawn. Like-named read-outs stand apart in the source and are kept apart here.

Assays:
[1] = target: murine macrophage iNOS (Mus musculus, UniProt P29477); experiment: NO hemoglobin capture assay, murine iNOS; format: biochemical
[2] = target: rat nNOS (Rattus norvegicus, UniProt P29476); experiment: NO hemoglobin capture assay, rat nNOS; format: biochemical; settings: for Selectivity n/i: nNOS versus iNOS
Chain of rat nNOS (P29476 whole entry): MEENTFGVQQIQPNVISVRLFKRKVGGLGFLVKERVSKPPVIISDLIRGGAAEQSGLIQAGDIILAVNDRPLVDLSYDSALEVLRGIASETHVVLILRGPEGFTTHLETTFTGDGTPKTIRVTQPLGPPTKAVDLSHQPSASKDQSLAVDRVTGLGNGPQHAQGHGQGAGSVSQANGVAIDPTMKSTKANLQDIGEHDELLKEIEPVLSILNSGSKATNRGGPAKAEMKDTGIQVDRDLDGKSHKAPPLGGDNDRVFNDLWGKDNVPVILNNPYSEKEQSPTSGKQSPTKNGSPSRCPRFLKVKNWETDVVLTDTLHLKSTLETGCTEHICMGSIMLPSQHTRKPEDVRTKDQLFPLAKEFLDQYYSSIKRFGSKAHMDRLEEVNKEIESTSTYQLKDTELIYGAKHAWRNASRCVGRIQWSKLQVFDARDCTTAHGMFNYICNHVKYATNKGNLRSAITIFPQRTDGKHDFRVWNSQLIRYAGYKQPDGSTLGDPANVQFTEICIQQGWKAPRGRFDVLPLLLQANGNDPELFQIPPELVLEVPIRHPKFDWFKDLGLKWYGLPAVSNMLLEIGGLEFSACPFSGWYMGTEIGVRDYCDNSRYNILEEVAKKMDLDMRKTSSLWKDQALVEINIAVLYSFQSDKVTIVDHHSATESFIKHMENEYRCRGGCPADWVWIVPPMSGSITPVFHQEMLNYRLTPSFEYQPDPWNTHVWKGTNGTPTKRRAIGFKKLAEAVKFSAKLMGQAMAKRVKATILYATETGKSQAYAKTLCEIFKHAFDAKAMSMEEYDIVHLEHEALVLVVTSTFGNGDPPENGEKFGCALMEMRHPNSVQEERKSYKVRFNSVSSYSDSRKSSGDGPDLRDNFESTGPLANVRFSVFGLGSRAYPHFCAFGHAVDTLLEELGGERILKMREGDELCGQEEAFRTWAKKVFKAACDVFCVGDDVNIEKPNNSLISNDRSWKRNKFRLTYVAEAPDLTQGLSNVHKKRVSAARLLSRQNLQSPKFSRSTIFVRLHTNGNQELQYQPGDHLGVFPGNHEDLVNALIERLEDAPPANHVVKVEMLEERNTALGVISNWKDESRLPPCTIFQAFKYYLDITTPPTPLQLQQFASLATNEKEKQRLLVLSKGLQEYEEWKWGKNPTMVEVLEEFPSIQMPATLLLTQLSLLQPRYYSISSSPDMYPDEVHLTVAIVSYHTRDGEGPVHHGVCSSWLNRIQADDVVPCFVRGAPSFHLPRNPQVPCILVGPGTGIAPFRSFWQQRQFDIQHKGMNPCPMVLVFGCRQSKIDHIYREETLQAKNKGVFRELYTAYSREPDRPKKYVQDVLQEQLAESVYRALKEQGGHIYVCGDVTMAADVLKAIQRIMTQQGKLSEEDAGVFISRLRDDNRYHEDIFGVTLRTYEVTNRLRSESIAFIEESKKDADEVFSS

[3] = target: human nNOS (Homo sapiens, UniProt P29475); experiment: NO hemoglobin capture assay, human nNOS; format: biochemical; settings: for Selectivity Human n/e: human nNOS versus human eNOS
Chain of human nNOS (P29475 whole entry): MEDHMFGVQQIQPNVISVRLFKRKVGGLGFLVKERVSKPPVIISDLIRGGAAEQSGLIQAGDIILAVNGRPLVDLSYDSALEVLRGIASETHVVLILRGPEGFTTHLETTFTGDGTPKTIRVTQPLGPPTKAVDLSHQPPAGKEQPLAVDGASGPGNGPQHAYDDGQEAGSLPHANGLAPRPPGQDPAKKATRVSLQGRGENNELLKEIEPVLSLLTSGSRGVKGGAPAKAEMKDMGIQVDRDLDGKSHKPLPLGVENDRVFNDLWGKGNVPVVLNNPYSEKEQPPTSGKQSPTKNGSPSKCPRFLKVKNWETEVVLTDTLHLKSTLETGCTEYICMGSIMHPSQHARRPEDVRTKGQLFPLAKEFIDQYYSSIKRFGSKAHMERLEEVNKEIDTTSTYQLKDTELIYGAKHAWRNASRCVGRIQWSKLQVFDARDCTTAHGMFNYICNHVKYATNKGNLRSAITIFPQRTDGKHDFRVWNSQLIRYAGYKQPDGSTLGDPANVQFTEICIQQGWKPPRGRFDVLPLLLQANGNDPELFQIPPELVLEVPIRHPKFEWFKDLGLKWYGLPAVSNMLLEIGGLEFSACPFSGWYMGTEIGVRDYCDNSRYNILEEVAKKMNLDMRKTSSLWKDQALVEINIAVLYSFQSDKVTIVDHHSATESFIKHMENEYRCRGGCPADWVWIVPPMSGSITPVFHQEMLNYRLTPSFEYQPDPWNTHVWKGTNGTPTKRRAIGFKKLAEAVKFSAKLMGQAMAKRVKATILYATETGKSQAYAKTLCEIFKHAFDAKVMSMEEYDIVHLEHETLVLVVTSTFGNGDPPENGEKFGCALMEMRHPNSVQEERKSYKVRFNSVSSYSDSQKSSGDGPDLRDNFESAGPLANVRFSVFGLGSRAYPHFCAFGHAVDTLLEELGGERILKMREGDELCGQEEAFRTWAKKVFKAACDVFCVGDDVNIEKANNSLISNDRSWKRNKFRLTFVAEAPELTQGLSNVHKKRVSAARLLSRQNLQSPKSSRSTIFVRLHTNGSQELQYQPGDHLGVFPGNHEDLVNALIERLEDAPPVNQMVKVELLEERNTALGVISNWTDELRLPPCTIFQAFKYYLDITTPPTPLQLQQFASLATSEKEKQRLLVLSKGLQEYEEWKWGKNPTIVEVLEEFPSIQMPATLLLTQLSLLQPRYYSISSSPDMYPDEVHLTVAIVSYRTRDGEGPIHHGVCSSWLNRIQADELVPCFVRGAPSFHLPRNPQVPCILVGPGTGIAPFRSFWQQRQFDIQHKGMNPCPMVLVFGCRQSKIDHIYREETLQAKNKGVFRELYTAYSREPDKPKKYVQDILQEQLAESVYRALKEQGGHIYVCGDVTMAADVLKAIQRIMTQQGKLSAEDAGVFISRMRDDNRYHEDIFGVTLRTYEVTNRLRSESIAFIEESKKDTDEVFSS

[4] = target: human iNOS (Homo sapiens, UniProt P35228); experiment: NO hemoglobin capture assay, human iNOS
[5] = target: human eNOS (Homo sapiens, UniProt P29474); experiment: NO hemoglobin capture assay, human eNOS
[6] = PAMPA-BBB assay; settings: for Papp at 17 h, 200 μM: PAMPA, pH 7.5; for Pe PAMPA-BBB: Table 4
[7] = target: iNOS (Mus musculus, UniProt P29477); experiment: NO hemoglobin capture assay, iNOS (Table 4, species not given)
[8] = Table 1, Ki from IC50 by Cheng-Prusoff, 10 μM L-Arg, pH 7.4, 37° C.
[9] = pH 7.4, read-out: Ki human nNOS
[10] = Table 4, read-out: Ki Human nNOS
[11] = read-out: Ki HiNOS, Table 5, Ki from IC50 by Cheng-Prusoff, 8 to 11 concentrations
[12] = Table 5, Ki from IC50 by Cheng-Prusoff, 8 to 11 concentrations, read-out: Ki HnNOS
[13] = Table 5, Ki from IC50 by Cheng-Prusoff, 8 to 11 concentrations, read-out: Ki RnNOS

## CNCC#Cc1cc(F)cc(CCc2cc(C)cc(N)n2)c1 [Compound 2, 6-(3-fluoro-5-(3-(methylamino)prop-1-yn-1-yl)phenethyl)-4-methylpyridin-2-amine]
[1]; [8]
  Ki: 7620 nM
[2]; pH 7.4, read-out: Ki rat nNOS
  Ki: 32 nM
[3]; [9]
  Ki: 58 nM

## Cc1cc(N)nc(CCc2cc(F)cc(C#CCN(C)C)c2)c1 [Compound 3, 6-(3-(3-(dimethylamino)prop-1-yn-1-yl)-5-fluorophenethyl)-4-methylpyridin-2-amine]
[1]; [8]
  Ki: 4890 nM
[2]
  drop in rat nNOS potency compared to 1: more than 2 fold
[2]; pH 7.4, read-out: Ki rat nNOS
  Ki: 58 nM
[3]
  drop in human nNOS potency compared to 1: > 4 fold
[3]; [9]
  Ki: 124 nM

## Cc1cc(N)nc(CCc2cc(F)cc(CC[C@@H]3CCCN3C)c2)c1 [Compound 5, (R)-6-(3-fluoro-5-(2-(1-methylpyrrolidin-2-yl)ethyl)phenethyl)-4-methylpyridin-2-amine]
[1]; [8]
  Ki: 2910 nM
[2]; pH 7.4, read-out: Ki rat nNOS
  Ki: 26 nM
[3]; [9]
  Ki: 52 nM

## Cc1cc(N)nc(CCc2cc(F)cc(CC[C@H]3CCCN3C)c2)c1 [Compound 7, (S)-6-(3-fluoro-5-(2-(1-methylpyrrolidin-2-yl)ethyl)phenethyl)-4-methylpyridin-2-amine]
[1]; [8]
  Ki: 3390 nM
[2]; pH 7.4, read-out: Ki rat nNOS
  Ki: 33 nM
[3]; [9]
  Ki: 84 nM

## Cc1cc(N)nc(CCc2cc(F)cc(CC[C@@H]3C[C@H](F)CN3)c2)c1 [Compound 8, 6-(3-fluoro-5-(2-((2R,4S)-4-fluoropyrrolidin-2-yl)ethyl)phenethyl)-4-methylpyridin-2-amine]
[1]; [8]
  Ki: 4540 nM
[2]; pH 7.4, read-out: Ki rat nNOS
  Ki: 65 nM
[3]
  drop in human nNOS potency compared to 1: 4 fold
[3]; [9]
  Ki: 129 nM

## Cc1cc(N)nc(CCc2cc(F)cc(CC[C@@H]3C[C@H](F)CN3C)c2)c1 [Compound 9, 6-(3-fluoro-5-(2-((2R,4S)-4-fluoro-1-methylpyrrolidin-2-yl)ethyl)phenethyl)-4-methylpyridin-2-amine]
[1]; [8]
  Ki: 5010 nM

## Cc1cc(N)nc(CCc2cc(CCCN(C)C)cc(F)c2F)c1 [Compound 10, 6-(5-(3-(dimethylamino)propyl)-2,3-difluorophenethyl)-4-methylpyridin-2-amine]
[1]; pH 7.4
  Ki: 823 nM
[2]; pH 7.4, read-out: Ki rat nNOS
  Ki: 19 nM
[4]; read-out: Ki human iNOS
  Ki: 1310 nM
[5]; read-out: Ki human eNOS
  Ki: 35000 nM

## Cc1cc(N)nc(CCc2cc(F)cc(CCCN(C)C)c2F)c1 [Compound 12, 6-(3-(3-(dimethylamino)propyl)-2,5-difluorophenethyl)-4-methylpyridin-2-amine]
[1]; [8]
  Ki: 1950 nM
[2]; pH 7.4, read-out: Ki rat nNOS
  Ki: 79 nM
[3]; [9]
  Ki: 157 nM

## Cc1cc(N)nc(CCc2c(F)c(F)cc(CCCN(C)C)c2F)c1 [Compound 13, 6-(3-(3-(dimethylamino)propyl)-2,5,6-trifluorophenethyl)-4-methylpyridin-2-amine]
[1]; [8]
  Ki: 3260 nM
[2]; pH 7.4, read-out: Ki rat nNOS
  Ki: 47 nM
[3]; [9]
  Ki: 58 nM

## Cc1cc(N)nc(CCc2cc(C#CCN(C)C)cc(F)c2F)c1 [Compound 16, 6-(5-(3-(dimethylamino)prop-1-yn-1-yl)-2,3-difluorophenethyl)-4-methylpyridin-2-amine]
[1]; [8]
  Ki: 4410 nM
[2]; pH 7.4, read-out: Ki rat nNOS
  Ki: 81 nM
[3]; [9]
  Ki: 84 nM

## Cc1cc(N)nc(CCc2cc(CC[C@@H]3CCCN3C)cc(F)c2F)c1 [Compound 17, (R)-6-(2,3-difluoro-5-(2-(1-methylpyrrolidin-2-yl)ethyl)phenethyl)-4-methylpyridin-2-amine]
[6]
  Papp at 17 h, 200 μM: ~18 ×10⁻⁶ cm/s

## Cc1cc(N)nc(CCc2cc(CC[C@H]3CCCN3C)cc(F)c2F)c1 [Compound 18, (S)-6-(2,3-difluoro-5-(2-(1-methylpyrrolidin-2-yl)ethyl)phenethyl)-4-methylpyridin-2-amine]
[6]
  Papp at 17 h, 200 μM: ~18 ×10⁻⁶ cm/s

## Cc1cc(N)nc(CCc2cc(CC[C@H]3COCCN3C)cc(F)c2F)c1 [Compound 19, (S)-6-(2,3-difluoro-5-(2-(4-methylmorpholin-3-yl)ethyl)phenethyl)-4-methylpyridin-2-amine]
[1]; [8]
  Ki: 3450 nM
[2]; pH 7.4, read-out: Ki rat nNOS
  Ki: 62 nM
[3]; [9]
  Ki: 89 nM

## CCO[C@@H]1C[C@H](CCc2cc(F)c(F)c(CCc3cc(C)cc(N)n3)c2)N(C)C1 [Compound 20, 6-(5-(2-((2S,4R)-4-ethoxy-1-methylpyrrolidin-2-yl)ethyl)-2,3-difluorophenethyl)-4-methylpyridin-2-amine]
[1]; [8]
  Ki: 4500 nM
[2]; pH 7.4, read-out: Ki rat nNOS
  Ki: 55 nM
[3]; [9]
  Ki: 87 nM

## CNC/C=C\c1cc(F)cc(CCc2cc(C)cc(N)n2)c1 [Compound 47]
[7]
  Ki: 2280 nM
[6]
  Pe PAMPA-BBB: 10.92 ± 0.02 10^-6 cm/s
[2]; Table 4
  Selectivity n/i: 73
[2]; Table 4, read-out: Ki Rat nNOS
  Ki: 31 nM
[3]; Table 4
  Selectivity nNOS human/rat: 2.5
  Selectivity Human n/e: 320
[3]; [10]
  Ki: 77 nM
[5]
  Ki: 24700 nM

## CNC/C=C/c1cc(F)cc(CCc2cc(C)cc(N)n2)c1 [Compound 48]
[7]
  Ki: 2730 nM
[6]
  Pe PAMPA-BBB: 10.30 ± 0.02 10^-6 cm/s
[2]; Table 4
  Selectivity n/i: 130
[2]; Table 4, read-out: Ki Rat nNOS
  Ki: 21 nM
[3]; Table 4
  Selectivity nNOS human/rat: 1.3
  Selectivity Human n/e: 721
[3]; [10]
  Ki: 28 nM
[5]
  Ki: 20200 nM

## CNCc1ccc2ncc(CCc3cc(C)cc(N)n3)cc2c1 [Compound 49]
[7]
  Ki: 3760 nM
[6]
  Pe PAMPA-BBB: No permeability
[2]; Table 4
  Selectivity n/i: 99
[2]; Table 4, read-out: Ki Rat nNOS
  Ki: 38 nM
[3]; Table 4
  Selectivity nNOS human/rat: 0.9
  Selectivity Human n/e: 614
[3]; [10]
  Ki: 36 nM
[5]
  Ki: 22100 nM

## CNCC#Cc1cc(F)c(F)c(CCc2cc(C)cc(N)n2)c1F [Compound 50]
[7]
  Ki: 5780 nM
[6]
  Pe PAMPA-BBB: 19.10 ± 0.5 10^-6 cm/s
[2]; Table 4
  Selectivity n/i: 48
[2]; Table 4, read-out: Ki Rat nNOS
  Ki: 119 nM
[3]; Table 4
  Selectivity nNOS human/rat: 1.4
  Selectivity Human n/e: 157
[3]; [10]
  Ki: 168 nM
[5]
  Ki: 26500 nM

## Cc1cc(N)nc(CCc2c(F)c(F)cc(CC[C@@H]3CCCN3C)c2F)c1 [Compound 51]
[7]
  Ki: 5880 nM
[6]
  Pe PAMPA-BBB: 20 ± 0.85 10^-6 cm/s
[2]; Table 4
  Selectivity n/i: 88
[2]; Table 4, read-out: Ki Rat nNOS
  Ki: 67 nM
[3]; Table 4
  Selectivity nNOS human/rat: 1.7
  Selectivity Human n/e: 266
[3]; [10]
  Ki: 112 nM
[5]
  Ki: 29800 nM

## Cc1cc(N)nc(CCc2c(F)c(F)cc(CC[C@H]3CCCN3C)c2F)c1 [Compound 52]
[7]
  Ki: 10000 nM
[6]
  Pe PAMPA-BBB: 20.3 ± 0.16 10^-6 cm/s
[2]; Table 4
  Selectivity n/i: 108
[2]; Table 4, read-out: Ki Rat nNOS
  Ki: 93 nM
[3]; Table 4
  Selectivity nNOS human/rat: 1.62
  Selectivity Human n/e: 196
[3]; [10]
  Ki: 151 nM
[5]
  Ki: 27300 nM

## Cc1cc(N)nc(CCc2cc(CN(C)C)cc(F)c2F)c1 [Compound 54]
[7]
  Ki: 76 nM

## Cc1cc(N)nc(CCc2cc(CCN(C)C)cc(F)c2F)c1 [Compound 58, 6-(5-(2-(Dimethylamino)ethyl)-2,3-difluorophenethyl)-4-methylpyridin-2-amine hydrochloride]
[7]
  Ki: 1050 nM
[6]
  Pe PAMPA-BBB: 19.5 ± 1.4 10^-6 cm/s

## CN(C)CCc1cc(F)c(F)c(CCc2cccc(N)n2)c1 [Compound 59, 6-(5-(2-(Dimethylamino)ethyl)-2,3-difluorophenethyl)pyridin-2-amine hydrochloride]
[2]; Ki RnNOS, Table 5, Ki from IC50 by Cheng-Prusoff, 8 to 11 concentrations
  Ki: 940 nM
[3]
  Ki: 3160 nM

## CNCCc1cc(F)c(F)c(CCc2cc(C)cc(N)n2)c1 [Compound 60, 6-(2,3-Difluoro-5-(2-(methylamino)ethyl)phenethyl)-4-methylpyridin-2-amine]
[2]
  Ki: 28 nM
[4]
  Ki: 1750 nM
[3]
  Ki: 24 nM
[3]; Table 5
  Selectivity hn/hi: 72
  Selectivity hn/rn: 1.2

## CN(C)CCc1cc(F)c(F)c(CCc2cc(C(F)(F)F)cc(N)n2)c1 [Compound 64, 6-(5-(2-(Dimethylamino)ethyl)-2,3-difluorophenethyl)-4-(trifluoromethyl)pyridin-2-amine]
[5]
  Ki: 102000 nM

## Nc1cc(Cl)cc(OCc2cccc(F)c2F)n1 [Compound 68, 4-Chloro-6-((2,3-difluorobenzyl)oxy)pyridin-2-aminehydrochloride]
[2]; read-out: Ki RnNOS
  Ki: 102000 nM

## Cc1cc(N)nc(CCCN(C)C)c1 [Compound 69, 6-(3-(Dimethylamino)propyl)-4-methylpyridin-2-amine hydrochloride]
[4]; [11]
  Ki: 2830 nM
[3]; [12]
  Ki: 29 nM
[5]
  Ki: 537 nM

## CNCCCc1cc(C)cc(N)n1 [Compound 70, 4-Methyl-6-(3-(methylamino)propyl)pyridin-2-amine hydrochloride]
[2]; [13]
  Ki: 29 nM
[4]; [11]
  Ki: 669 nM
[3]; Table 5
  Selectivity hn/rn: 1.4
[3]; [12]
  Ki: 21 nM

## CNCC#Cc1cc(C)cc(N)n1 [Compound 71, 4-Methyl-6-(3-(methylamino)prop-1-yn-1-yl)pyridin-2-amine hydrochloride]
[2]; [13]
  Ki: 88 nM
[4]; [11]
  Ki: 3580 nM
[3]; Table 5
  Selectivity hn/rn: 1.0
[3]; [12]
  Ki: 92 nM

## Cc1cc(N)nc(CCCN2CCN(C)CC2)c1 [Compound 72, 4-Methyl-6-(3-(4-methylpiperazin-1-yl)propyl)pyridin-2-amine]
[2]; read-out: Ki RnNOS
  Ki: 55 nM
[4]; [11]
  Ki: 10200 nM
[3]; Table 5
  Selectivity hn/rn: 3.0
[3]; [12]
  Ki: 171 nM

## Cc1cc(N)nc(C#CCN2CCN(C)CC2)c1 [Compound 73, 4-Methyl-6-(3-(4-methylpiperazin-1-yl)prop-1-yn-1-yl)pyridin-2-amine]
[2]; [13]
  Ki: 947 nM
[4]; [11]
  Ki: 114000 nM
[3]; Table 5
  Selectivity hn/rn: 2.2
[3]; [12]
  Ki: 2120 nM
